Source: US20260138958A1, “SUBSTITUTED N-PHENYLURACILS AND SALTS THEREOF, AND USE THEREOF AS HERBICIDAL ACTIVE SUBSTANCES” (Bayer Aktiengesellschaft, priority 2022, published 2026)

Tests used:
Assay type in all cases: in vivo
harmful plants = experiment: Post-emergence herbicidal action, summary statements over several weeds; conditions: 20 g or less per hectare, ALOMY, ECHCG, AVEFA, VERPE
Experimental: (§1) Seeds of monocotyledonous and dicotyledonous weeds and crop plants were placed in sandy loam in plastic or wood-fibre pots, covered with soil and cultivated in a greenhouse under controlled growth conditions. 2 to 3 weeks after sowing, the test plants were treated at the one-leaf stage. The compounds of the invention, formulated in the form of wettable powders (WP) or as emulsion concentrates (EC), were then sprayed onto the green parts of the plants as aqueous suspension or emulsion with addition of 0.5% additive at a water application rate of 600 l/ha (converted). After the test plants had been kept in the greenhouse under optimum growth conditions for about 3 weeks, the activity of the preparations was rated visually in comparison to untreated controls. For example, 100% activity=the plants have died, 0% activity=like control plants.

Avena fatura (AVEFA) = experiment: Comparative post-emergence herbicidal action, greenhouse pot test; conditions: Table B3 comparison, application rate 20 g/ha
Experimental: as §1
Tables B1-B5 below show the effects of inventive compounds (I.7-12, I.7-14, I.7-16) that have been obtained by the test method specified above on various harmful plants at an application rate corresponding to 20 g/ha or lower by comparison with structurally similar compounds known from the literature (“a-27”, “a-29”, disclosed in WO2002/098227).

[1] = test system: Echinochloa crus-galli (ECHCG); experiment: Post-emergence herbicidal action, greenhouse pot test
In short: (§2)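 Post-em greenhouse pots, sandy loam; one-leaf stage (2–3 wk after sowing); WP/EC spray, aq. suspension/emulsion + 0.5% additive, 600 l/ha; optimum conditions ~3 wk; visual % activity vs untreated (100% = dead).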

Viola tricolor (VIOTR) = experiment: as above
In short: as §2

[2] = test system: Polygonum convolvulus (POLCO); experiment: as above
In short: as §2

[3] = test system: Pharbitis purpurea (PHBPU); experiment: as above
In short: as §2

[4] = test system: Alopecurus myosuroides (ALOMY); experiment: as above
In short: as §2

[5] = test system: Digitaria sanguinalis (DIGSA); experiment: as above
In short: as §2

[6] = test system: Tripleurospermum inodorum (MATIN); experiment: as above; conditions: 20 g/ha
In short: as §2

[7] = test system: Amaranthus retroflexus (AMARE); experiment: as above
In short: as §2

[8] = test system: Abutilon theophrasti (ABUTH); experiment: as above
In short: as §2

Veronica persica (VERPE) = experiment: as above
In short: as §2

Setaria viridis (SETVI) = experiment: as above
In short: as §2

crop plants = experiment: Post-emergence crop plant compatibility, summary statements over several crops; conditions: 5 g or less per hectare, ORYSA, ZEAMX, TRZAS
Experimental: as §1
The observed effects on selected crop plants are reported here in comparison to the untreated controls (values in %).

[9] = test system: Triticum aestivum (TRZAS); experiment: Post-emergence crop plant compatibility, greenhouse pot test
In short: (§3)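 Visual % damage scores were taken roughly 3 weeks after treatment, relative to untreated plants, where 100% means plants died and 0% means no difference. Plants received aqueous sprays (WP or EC, 0.5% additive, 600 l/ha) on green parts at the one-leaf stage, 2–3 weeks after sowing.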

Zea mays (ZEAMX) = experiment: as above; conditions: Zea mays, in vivo
In short: as §3

Oryza sativa (ORYSA) = experiment: as above; conditions: Oryza sativa, in vivo
In short: as §3

Bassia scoparia (KCHSC) = experiment: Post-emergence herbicidal action, greenhouse pot test
In short: as §2

Lolium rigidum (LOLRI) = experiment: as above
In short: as §2

Glycine max (GLXMA) = experiment: Post-emergence crop plant compatibility, greenhouse pot test; conditions: crop plant, post-emergence, 1.25 g/ha
In short: as §3

## Cn1c(C(F)(F)F)cc(=O)n(-c2cc(Oc3ccccc3OCC(=O)OCC3CCCC3)c(Cl)cc2F)c1=O [I.7-12]
Harmful plants
  herbicidal efficacy by comparison with a-27, a-29 or a generically encompassed structure (WO2002/098227): distinctly improved herbicidal efficacy
Avena fatura (AVEFA)
  AVEFA (efficacy in %): 70%
[1]
  Post-emergence effect at 5 g/ha against ECHCG in %: 90%
[1]; Echinochloa crus-galli, 504 h, 20 g/ha, read-out: Post-emergence effect at 20 g/ha against ECHCG in %
  pest or weed control at 20 g/ha: 100%
[1]; Table B2 comparison, application rate 1.25 g/ha
  ECHCG (efficacy in %): 60%
Viola tricolor (VIOTR)
  Post-emergence effect at 1.25 g/ha against VIOTR in %: 100%
  Post-emergence effect at 5 g/ha against VIOTR in %: 100%
Viola tricolor (VIOTR); Viola tricolor, 504 h, 20 g/ha, read-out: Post-emergence effect at 20 g/ha against VIOTR in %
  pest or weed control at 20 g/ha: 100%
[2]; Fallopia convolvulus, 504 h, 5 g/ha, read-out: Post-emergence effect at 5 g/ha against POLCO in %
  pest or weed control at 5 g/ha: 80%
[2]; Fallopia convolvulus, 504 h, 20 g/ha, read-out: Post-emergence effect at 20 g/ha against POLCO in %
  pest or weed control at 20 g/ha: 100%
[3]
  Post-emergence effect at 1.25 g/ha against PHBPU in %: 80%
[3]; Ipomoea purpurea, 504 h, 5 g/ha, read-out: Post-emergence effect at 5 g/ha against PHBPU in %
  pest or weed control at 5 g/ha: 100%
[3]; Ipomoea purpurea, 504 h, 20 g/ha, read-out: Post-emergence effect at 20 g/ha against PHBPU in %
  pest or weed control at 20 g/ha: 100%
[4]; Alopecurus myosuroides, 504 h, 20 g/ha, read-out: Post-emergence effect at 20 g/ha against ALOMY in %
  pest or weed control at 20 g/ha: 100%
[4]; Table B1 comparison, application rate 20 g/ha
  ALOMY (efficacy in %): 100%
[5]; 1.25 g/ha
  Post-emergence effect at 1.25 g/ha against DIGSA in %: 100%
[5]
  Post-emergence effect at 5 g/ha against DIGSA in %: 100%
  Post-emergence effect at 20 g/ha against DIGSA in %: 100%
[6]; Tripleurospermum inodorum, 504 h, read-out: Post-emergence effect at 20 g/ha against MATIN in %
  pest or weed control at 20 g/ha: 100%
[7]; Amaranthus retroflexus, 504 h, 1.25 g/ha, read-out: Post-emergence effect at 1.25 g/ha against AMARE in %
  pest or weed control at 1.25 g/ha: 100%
[7]; Amaranthus retroflexus, 504 h, 5 g/ha, read-out: Post-emergence effect at 5 g/ha against AMARE in %
  pest or weed control at 5 g/ha: 100%
[7]; Amaranthus retroflexus, 504 h, 20 g/ha, read-out: Post-emergence effect at 20 g/ha against AMARE in %
  pest or weed control at 20 g/ha: 100%
[8]
  Post-emergence effect at 1.25 g/ha against ABUTH in %: 90%
[8]; Abutilon theophrasti, 504 h, 5 g/ha, read-out: Post-emergence effect at 5 g/ha against ABUTH in %
  pest or weed control at 5 g/ha: 100%
[8]; Abutilon theophrasti, 504 h, 20 g/ha, read-out: Post-emergence effect at 20 g/ha against ABUTH in %
  pest or weed control at 20 g/ha: 100%
Veronica persica (VERPE)
  Post-emergence effect at 1.25 g/ha against VERPE in %: 90%
Veronica persica (VERPE); Veronica persica, 504 h, 5 g/ha, read-out: Post-emergence effect at 5 g/ha against VERPE in %
  pest or weed control at 5 g/ha: 100%
Veronica persica (VERPE); Veronica persica, 504 h, 20 g/ha, read-out: Post-emergence effect at 20 g/ha against VERPE in %
  pest or weed control at 20 g/ha: 100%
Setaria viridis (SETVI)
  Post-emergence effect at 1.25 g/ha against SETVI in %: 80%
Setaria viridis (SETVI); Setaria viridis, 504 h, 5 g/ha, read-out: Post-emergence effect at 5 g/ha against SETVI in %
  pest or weed control at 5 g/ha: 100%
Setaria viridis (SETVI); Setaria viridis, 504 h, 20 g/ha, read-out: Post-emergence effect at 20 g/ha against SETVI in %
  pest or weed control at 20 g/ha: 100%
Crop plants
  compatibility with crop plants by comparison with a-27, a-29 or a generically encompassed structure (WO2002/098227): distinctly improved compatibility
[9]; Triticum aestivum, in vivo
  Post-emergence effect at 1.25 g/ha against TRZAS in %: 10%
  Post-emergence effect at 20 g/ha against TRZAS in %: 20%
Zea mays (ZEAMX)
  Post-emergence effect at 1.25 g/ha against ZEAMX in %: 10%
  Post-emergence effect at 5 g/ha against ZEAMX in %: 20%
Oryza sativa (ORYSA)
  Post-emergence effect at 1.25 g/ha against ORYSA in %: 0%
  Post-emergence effect at 5 g/ha against ORYSA in %: 20%

## CC(OC(=O)COc1ccccc1Oc1cc(-n2c(=O)cc(C(F)(F)F)n(C)c2=O)c(F)cc1Cl)C1CCCC1 (stereo not shown) [I.7-13]
[1]; 1.25 g/ha
  Post-emergence effect at 1.25 g/ha against ECHCG in %: 80%
[1]
  Post-emergence effect at 5 g/ha against ECHCG in %: 90%
[1]; 20 g/ha
  Post-emergence effect at 20 g/ha against ECHCG in %: 100%
Viola tricolor (VIOTR)
  Post-emergence effect at 1.25 g/ha against VIOTR in %: 90%
  Post-emergence effect at 5 g/ha against VIOTR in %: 100%
Viola tricolor (VIOTR); 20 g/ha
  Post-emergence effect at 20 g/ha against VIOTR in %: 100%
[2]; 5 g/ha
  Post-emergence effect at 5 g/ha against POLCO in %: 100%
[2]; 20 g/ha
  Post-emergence effect at 20 g/ha against POLCO in %: 100%
[3]
  Post-emergence effect at 1.25 g/ha against PHBPU in %: 100%
[3]; 5 g/ha
  Post-emergence effect at 5 g/ha against PHBPU in %: 100%
[3]; 20 g/ha
  Post-emergence effect at 20 g/ha against PHBPU in %: 100%
[4]; 20 g/ha
  Post-emergence effect at 20 g/ha against ALOMY in %: 80%
[5]
  Post-emergence effect at 5 g/ha against DIGSA in %: 100%
  Post-emergence effect at 20 g/ha against DIGSA in %: 100%
Bassia scoparia (KCHSC); 5 g/ha
  Post-emergence effect at 5 g/ha against KCHSC in %: 100%
Bassia scoparia (KCHSC); 20 g/ha
  Post-emergence effect at 20 g/ha against KCHSC in %: 100%
[6]
  Post-emergence effect at 20 g/ha against MATIN in %: 80%
[7]; 1.25 g/ha
  Post-emergence effect at 1.25 g/ha against AMARE in %: 100%
[7]; 5 g/ha
  Post-emergence effect at 5 g/ha against AMARE in %: 100%
[7]; 20 g/ha
  Post-emergence effect at 20 g/ha against AMARE in %: 100%
[8]
  Post-emergence effect at 1.25 g/ha against ABUTH in %: 80%
[8]; 5 g/ha
  Post-emergence effect at 5 g/ha against ABUTH in %: 100%
[8]; 20 g/ha
  Post-emergence effect at 20 g/ha against ABUTH in %: 100%
Lolium rigidum (LOLRI)
  Post-emergence effect at 20 g/ha against LOLRI in %: 80%
Veronica persica (VERPE)
  Post-emergence effect at 1.25 g/ha against VERPE in %: 100%
Veronica persica (VERPE); 5 g/ha
  Post-emergence effect at 5 g/ha against VERPE in %: 100%
Veronica persica (VERPE); 20 g/ha
  Post-emergence effect at 20 g/ha against VERPE in %: 100%
Setaria viridis (SETVI)
  Post-emergence effect at 1.25 g/ha against SETVI in %: 100%
Setaria viridis (SETVI); 5 g/ha
  Post-emergence effect at 5 g/ha against SETVI in %: 100%
Setaria viridis (SETVI); 20 g/ha
  Post-emergence effect at 20 g/ha against SETVI in %: 100%
[9]; crop plant, post-emergence, 1.25 g/ha
  Post-emergence effect at 1.25 g/ha against TRZAS in %: 20%
Glycine max (GLXMA)
  Post-emergence effect at 1.25 g/ha against GLXMA in %: 20%
